Experimental data from patent US11905279B1, “Benzylidene derivatives of fenobam as anti-inflammatory agents” (KING FAISAL UNIVERSITY, priority 2023, dated 2024).

Experiments:
human COX-2 = target: T1, human COX-2 (Homo sapiens, UniProt P35354); test: Cyclooxygenase (COX-2) enzyme inhibition assay, COX (human) Inhibitor Screening Assay Kit; assay type: biochemical; conditions: compound at 10 μM; in vitro, human COX-2 isoenzyme; ELISA incubation 18 hours; read-out: % Inhibition( COX2) Mean ± SEM
T1 construct: purchased
T1 sequence (P35354 18-604): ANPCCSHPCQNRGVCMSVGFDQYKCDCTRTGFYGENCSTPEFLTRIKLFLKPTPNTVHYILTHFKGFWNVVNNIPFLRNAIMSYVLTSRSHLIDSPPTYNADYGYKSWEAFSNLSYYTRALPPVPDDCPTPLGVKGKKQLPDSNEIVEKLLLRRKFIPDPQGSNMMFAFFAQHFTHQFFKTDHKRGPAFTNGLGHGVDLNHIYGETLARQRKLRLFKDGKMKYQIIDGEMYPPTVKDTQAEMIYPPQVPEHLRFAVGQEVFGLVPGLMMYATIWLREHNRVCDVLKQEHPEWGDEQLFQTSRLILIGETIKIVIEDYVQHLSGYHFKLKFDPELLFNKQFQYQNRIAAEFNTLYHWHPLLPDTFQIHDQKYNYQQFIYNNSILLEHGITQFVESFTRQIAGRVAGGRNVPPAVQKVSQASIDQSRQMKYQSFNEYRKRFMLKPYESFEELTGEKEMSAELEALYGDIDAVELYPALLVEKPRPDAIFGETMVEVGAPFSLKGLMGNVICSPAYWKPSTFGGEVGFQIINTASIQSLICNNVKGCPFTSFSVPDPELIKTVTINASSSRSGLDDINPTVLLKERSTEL
Experimental: (§1) According to manufacturer instructions, a COX inhibition assay was performed using COX (human) Inhibitor Screening Assay Kit for the compounds 5c, 5d, 5h, 5k, 5l, 5m, and 6d. All reagents and buffers were prepared in ultrapure water. All stock solutions of the compounds and the positive controls (Indomethacin and Celecoxib) were dissolved in DMSO. In each inhibitor sample tube, 160 μL reaction buffer, 10 μL of heme, 10 μL of diluted COX-1 or COX-2 enzyme, and 10 μL of the diluted inhibitor was added to get a final concentration of 100 μM. […] 10 μL of the vehicle control (DMSO) was added to the background tubes, and COX enzyme's 100% initial activity was obtained. All reaction tubes were incubated for 10 minutes at 37° C. Following this incubation, 10 μL of the substrate, arachidonic acid (AA), was added to all test tubes, mixed, and further incubated for precisely 30 seconds at 37° C. Then, 30 μL of SnCl2 solution was added to each reaction tube to stop the enzyme catalysis. All reaction tubes were removed from the incubator, vortexed, and incubated again for 5 min at room temperature. Reaction tubes were stored at 4° C. to quantify the prostaglandin formation by competitive enzyme-linked immunosorbent assay (ELISA). ELISA standards were prepared in test tubes to perform the competitive ELISA, and dilutions were prepared with the ELISA buffer. The standards, COX reaction dilutions, and background samples were serially diluted. After that, 50 μL of the diluted standards, COX background, COX 100% initial activity, and COX inhibitor samples were transferred to the corresponding wells of 96 well ELISA plate. Blank (to assess the background absorbance caused by Ellman's reagent) and total activity (TA) (to determine the enzymatic activity of the AChE-linked tracer) wells were left empty, 100 μL and 50 μL of the ELISA buffer were added to the nonspecific binding (NSB) and maximum binding (BO), respectively. Prostaglandin screening AChE tracer (50 μL) and prostaglandin screening ELISA antiserum (50 μL) were added to corresponding wells except for TA. The plate was covered with a plastic film, wrapped with foil to protect from light, and incubated for 18 hours at room temperature. Following incubation, the plate was washed and developed with 200 μL of Ellman's reagent to all wells, and 5 μL of tracer was added to TA well. The plate was covered with foil, placed on an orbital shaker, and incubated for 60-90 minutes. Finally, the plate reading was done at a wavelength of 405 nm with a Microplate reader from BioTek (by Agilent), and data were collected using Gen5™ (by Agilent) analysis software.
(§2) In vitro catalytic inhibition data of compounds 5c, 5d, 5h, 5k, 5l, 5m, and 6d at 10 μM against human COX-1 and COX-2 isoenzymes is listed in Table 1.

human COX-1 = target: T2, human COX-1 (Homo sapiens, UniProt P23219); test: Cyclooxygenase (COX-1) enzyme inhibition assay, COX (human) Inhibitor Screening Assay Kit; assay type: biochemical; conditions: compound at 10 μM; in vitro, human COX-1 isoenzyme; ELISA incubation 18 hours; read-out: % Inhibition( COX1) Mean ± SEM
T2 construct: purchased
T2 sequence (P23219 24-599): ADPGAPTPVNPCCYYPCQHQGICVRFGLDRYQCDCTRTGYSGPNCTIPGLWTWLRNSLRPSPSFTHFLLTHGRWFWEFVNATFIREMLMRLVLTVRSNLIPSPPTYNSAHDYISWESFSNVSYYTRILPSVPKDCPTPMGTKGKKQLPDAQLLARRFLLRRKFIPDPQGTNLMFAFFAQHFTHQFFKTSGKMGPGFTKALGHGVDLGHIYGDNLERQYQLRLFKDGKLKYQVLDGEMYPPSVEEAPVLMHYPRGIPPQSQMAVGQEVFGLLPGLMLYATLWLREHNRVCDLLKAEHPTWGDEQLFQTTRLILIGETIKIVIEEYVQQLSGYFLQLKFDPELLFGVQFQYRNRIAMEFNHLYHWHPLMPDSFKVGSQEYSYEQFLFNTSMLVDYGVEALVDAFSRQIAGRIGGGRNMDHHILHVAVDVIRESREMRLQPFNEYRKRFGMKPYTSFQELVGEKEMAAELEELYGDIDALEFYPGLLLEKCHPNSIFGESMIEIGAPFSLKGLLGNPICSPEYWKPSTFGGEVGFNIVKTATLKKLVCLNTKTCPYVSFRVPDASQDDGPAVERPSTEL
Experimental: as §1, §2

CN1/C(=C\c2ccc(-c3ccccc3[N+](=O)[O-])o2)C(=O)N/C1=N\C(=O)Nc1cccc(F)c1 [Compound 5h, 1-(3-Fluorophenyl)-3-[(2E,5Z)-1-methyl-5-{[5-(2-nitrophenyl)furan-2-yl]methylidene}-4-oxoimidazolidin-2-ylidene]urea]
inhibition at 10 µM (human COX-2): 39 ± 2% | inhibition at 10 µM (human COX-1): 51 ± 7%

CN1/C(=C\c2ccc(Br)o2)C(=O)N/C1=N\C(=O)Nc1ccc(F)cc1 [Compound 5k, 1-{(2E,5Z)-5-[(5-Bromofuran-2-yl)methylidene]-1-methyl-4-oxoimidazolidin-2-ylidene}-3-(4-fluorophenyl)urea]
inhibition at 10 µM (human COX-2): 89 ± 3% | inhibition at 10 µM (human COX-1): 26 ± 6.5%

CN1/C(=C\c2ccc(-c3ccccc3[N+](=O)[O-])o2)C(=O)N/C1=N\C(=O)Nc1ccccc1F [Compound 5d, 1-(2-Fluorophenyl)-3-[(2E,5Z)-1-methyl-5-{[5-(2-nitrophenyl)furan-2-yl]methylidene}-4-oxoimidazolidin-2-ylidene]urea]
inhibition at 10 µM (human COX-2): 97 ± 0.5% | inhibition at 10 µM (human COX-1): 57 ± 0.15%

CN1/C(=C\c2ccc(Br)o2)C(=O)N/C1=N\C(=O)Nc1ccccc1F [Compound 5c, 1-{(2E,5Z)-5-[(5-Bromofuran-2-yl)methylidene]-1-methyl-4-oxoimidazolidin-2-ylidene}-3-(2-fluorophenyl)urea]
inhibition at 10 µM (human COX-2): 78 ± 15.5% | inhibition at 10 µM (human COX-1): 17 ± 6.5%

CN1/C(=C\c2ccc([N+](=O)[O-])cc2)C(=O)N/C1=N\C(=O)Nc1ccc(Cl)cc1Cl [Compound 5m, 1-(2,4-Dichlorophenyl)-3-[(2E,5Z)-1-methyl-5-(4-nitrobenzylidene)-4-oxoimidazolidin-2-ylidene]urea]
inhibition at 10 µM (human COX-2): 69 ± 2.5% | inhibition at 10 µM (human COX-1): 5 ± 23.5%

CN1/C(=C\c2ccc(-c3ccccc3[N+](=O)[O-])o2)C(=O)N/C1=N\C(=O)Nc1ccc(F)cc1 [Compound 5l, 1-(4-Fluorophenyl)-3-[(2E,5Z)-1-methyl-5-{[5-(2-nitrophenyl)furan-2-yl]methylidene}-4-oxoimidazolidin-2-ylidene]urea]
inhibition at 10 µM (human COX-2): 20 ± 5.5% | inhibition at 10 µM (human COX-1): 31 ± 2.5%

CN1/C(=C\c2ccc(-c3ccccc3[N+](=O)[O-])o2)C(=O)N/C1=N\C(=S)Nc1cccc(Cl)c1 [Compound 6d, 1-(3-Chlorophenyl)-3-[(2E,5Z)-1-methyl-5-{[5-(2-nitrophenyl)furan-2-yl]methylidene}-4-oxoimidazolidin-2-ylidene]thiourea]
inhibition at 10 µM (human COX-2): 54 ± 8.5% | inhibition at 10 µM (human COX-1): -14 ± 5.5%
